Data as given in patent publication US10369123B2, “Perk activator for the treatment of neurodegenerative diseases” (DEUTSCHES ZENTRUM FÜR NEURODEGENERATIVE ERKRANKUNGEN E.V. …, priority 2014, dated 2019).
Like-named read-outs stand apart in the source and are kept apart here.

Tests used:
[1] = tested on: paired helical filament tau (AT180); assay: Immunohistochemistry of P301S mouse hippocampus; assay type: in vivo; conditions: P301S mice, 2 mg/kg i.p. once daily for 6 weeks from 17 weeks of age, vs saline
Experimental: (§1) For the efficacy trial in the late disease stage (Xu et al. 2014), P301S mice and wild type littermates received once daily i.p. injections of 2 mg/kg CCT020312 or saline from 17 to 22 weeks of age (n=12 for CCT020312 treated P301S mice, n=9 for other groups); they were analyzed with the Rotarod test in the 23rd week of age.
Twelve hours after the last injection, animals were anesthetized by i.p. injections of pentobarbital at (100 mg/kg) and transcardially perfused with 0.1 M phosphate buffer for 2 min, then fixed for 10 min with 4% paraformaldehyde. Post-fixation of the brain was done in 4% paraformaldehyde at 4° C. for 48 h. Their brains were prepared for histological analysis, as described (Xu et al. 2014). For the immunoblot analysis in P301S mice and wild type mice were sacrificed by cervical dislocation, their brains were frozen on dry ice and stored at −80° C. for Western blot analysis.
Fixed brains (n=6 per group) were cut into 30 μm-thickness of coronal sections with a cryomicrotome (CM3050 S, Leica). […]

LUHMES neurons = assay: Morphological inspection and counts of viable cells; assay type: cell-based, human; conditions: co-treatment with PERK activator
Experimental: (§2) Nunc™ Nunclon™ Delta 6-well (for protein and mRNA) or 48-well (for cell assays) plates (Thermo Fisher Scientific, Waltham, Mass., USA) were coated with 100 μg/ml poly-L-lysine (Sigma-Aldrich, St. Louis, Mo., USA) and 5 μg/ml fibronectin (Sigma-Aldrich). LUHMES (Lund Human Mesencephalic) cells, derived from human embryonic ventral mesencephalic cells by conditional immortalization (Tet-off v-myc over-expression) were seeded out in a concentration of 130,000 cells/cm^2 to achieve a confluence of 50%. They were then differentiated for 8 days in a medium of DMEM/F12 (Sigma-Aldrich), 1 μg/ml tetracycline, […] and 490 μg/ml dbcAMP into post-mitotic neurons with a dopaminergic phenotype (Lotharius et al. 2005).
(§3) For all experiments with annonacin, the medium was replaced during the intoxication period with new medium containing glucose levels reduced to 250 μM, i.e. the physiological concentration in the human brain.
The protection by the PERK activator against annonacin and 4R-tau protein overexpression was also evident on morphological inspection of the cells. […] Lentiviral 4R-tau overexpression had similar effects. […] Cell counts of viable cells with intact nuclear and somatic morphology were counted in randomly selected 1300×1000 sized areas in 4 biological replicates each, confirming the protective effects of Pa.

[2] = tested on: 3R/4R MAPT mRNA, splicing factor SRSF2; assay: Quantitative PCR of MAPT isoforms and splicing factors, annonacin model; assay type: cell-based, human; conditions: annonacin + PERK activator
Experimental: as §2, §3
RNA from human tissue samples was extracted by grinding the tissue in liquid nitrogen to a powder and then dissolving it in the RA1 buffer supplied as part of the NucleoSpin® RNA (Macherey Nagel) RNA extraction kit+1% (v/v) 2-mercaptoethanol (Sigma-Aldrich). RNA from cells was extracted by scraping the cells from the culture plate with RA1 buffer+1% (v/v) 2-mercaptoethanol. The remaining extraction procedure was according to the manufacturer's instructions for the NucleoSpin® RNA kit. RNA concentrations were determined using the NanoDrop 2000c Spectrophotometer. The RNA was then transcribed into cDNA with the iScript™ cDNA Synthesis Kit (BioRad) using the manufacturer's instructions. Real-Time PCR was performed on the Applied Biosystems® StepOnePlus™ (Life Technologies) system using TagMan® Universal Master Mix II and TaqMan® primers against total MAPT, MAPT 3R, MAPT 4R, EIF2A, EI2AK3 and ATF4. POL2A and PSCM1 served as reference targets as they were determined to be the most stably expressed across experimental conditions. The results were analyzed using the StepOne Plus software (Life Technologies) and Qbase software (Biogazelle) and were then graphically and statistically analyzed with Prism 6 (GraphPad Software). Absolute quantification was performed by creating a standard curve with plasmids containing either the 2N3R or the 2N4R spliced variant of MAPT (see Table 2). The absolute quantity was computed by deriving the relationship between CT values and absolute quantity with the StepOne Plus software.

[3] = tested on: wild type and P301S tau mice; assay type: in vivo, mouse
Experimental: All animal work was conducted either on CR57BL/6 mice, obtained from Charles River Laboratories, Wilmington, Mass., USA, or on homozygous transgenic mice overexpressing human tau with the P301S mutation on a C57BL/6 background, originally developed by Michel Goedert (Xu et al. 2014), obtained by own breeding. Animals were kept at 23±1° C. under standard 12 h light-dark cycle with free access to food and water. They were handled according to the EU Council Directive 2010/63/EU, the Guide for the Care and Use of Laboratory Animals (National Research Council 2011) and the guidelines of the local institutional committee. The experiments were authorized by the local authority “Regierung von Oberbayern” under application number 55.2-1-54-2532-165-13. […]
For the efficacy trial in the early disease stage (Xu et al. 2014), P301S mice (n=8 per group) and wild type littermates (n=9 per group) received once daily i.p. injections of 2 mg/kg CCT020312 or equivalent volumes of saline from 9 to 14 weeks of age; they were analyzed with the Morris Water Maze in the 15th week of age.
as §1

Structure (SMILES): CCN(CC)CCC(=O)N1N=C(c2c(-c3ccccc3)c3cc(Br)ccc3[nH]c2=O)CC1c1ccc(Br)cc1 (stereo not drawn) [CCT020312, 6-bromo-3-[5-(4-bromo-phenyl)-1-(3-diethylamino-propionyl)-4,5-dihydro-1H-pyrazol-3-yl]-4-phenyl-1H-quinolin-2-one]
- AT180-immunoreactivity in the hippocampal region, histology [1]: decreased
- number of viable cells: toxicity of annonacin and 4R-tau overexpression (LUHMES neurons): mitigated these effects
- annonacin-induced increase of splicing factor SRSF2 [2]: significantly reduced
- 4R-tau mRNA amount ([2]; 48 h): reduced
- death or obvious signs of sickness during treatment ([3]; aged wild type and P301S tau mice, 2 mg/kg once daily for 6 weeks, until 23 weeks of age): no CCT020312-treated wild type (n=9) and P301S tau mouse (n=12) died during the treatment period or showed any obvious signs of sickness
- death or obvious signs of sickness during treatment ([3]; young wild type and P301S tau mice, 2 mg/kg for 6 weeks): No CCT020312-treated mouse of the wild type group (N=8) and of the P301S tau group (N=8) died during the treatment period or showed any obvious signs of sickness
